Species: Rattus norvegicus
Assay: Open TG-GATES - Regimen: Daily Repeat
Type: toxicity, organism-based, Sprague-Dawley
Parameters: regimen Daily Repeat, gender Male, age 6 weeks
Conditions: in vivo, po, route gavage; for gamma-GTP / ALP / ALT / AST / CRE / Ca / Cl / DBIL / GLC / IP / K / LDH / Na / PL / RALB / TBIL / TC / TG / TP / BUN: tissue Plasma; for APTT / Bas / Eos / Fbg / Hb / Lym / MCH / MCHC / MCV / Mono / Plat / RBC / Ret / WBC / Ht: tissue Blood; for KIDNEY_L / KIDNEY_R / KIDNEY_TOTAL: tissue Kidney
[1] = 75 mg/kg, 72 h, dose level Middle, time 3 day
[2] = 75 mg/kg, […], dose level Middle, time 7 day
[3] = 75 mg/kg, […], dose level Middle, time 14 day
[4] = 75 mg/kg, […], dose level Middle, time 28 day
[5] = 250 mg/kg, 72 h, dose level High, time 3 day
[6] = 250 mg/kg, […], dose level High, time 7 day
[7] = 250 mg/kg, […], dose level High, time 14 day
[8] = 250 mg/kg, […], dose level High, time 28 day

Structure (SMILES): O=C1CN(/N=C/c2ccc(-c3ccc([N+](=O)[O-])cc3)o2)C(O)=N1 [DANTROLENE]
- gamma-GTP (25 mg/kg, […], dose level Low, time 28 day): 1.6 IU/L
- TERMINAL_BW [1]: 213.7 g
- APTT [1]: 19.1 s
- Bas [1]: 0%
- Eos [1]: 1%
- Fbg [1]: 223.4 mg/dL
- Hb [1]: 14.1 g/dL
- Lym [1]: 81.8%
- MCH [1]: 21.6 pg
- MCHC [1]: 33.8%
- MCV [1]: 63.8 fL
- Mono [1]: 7%
- Plat [1]: 126.6 x10_4/uL
- RBC [1]: 656.2 x10_4/ul
- Ret [1]: 2.9%
- WBC [1]: 97.1 x10_2/uL
- KIDNEY_L [1]: 1 g
- KIDNEY_R [1]: 1 g
- KIDNEY_TOTAL [1]: 2 g
- ALP [1]: 615 IU/L
- ALT [1]: 30.2 IU/L
- AST [1]: 63.2 IU/L
- CRE [1]: 0.6 mg/dL
- Ca [1]: 10.8 mg/dL
- Cl [1]: 105.2 meq/L
- DBIL [1]: 0.01 mg/dL
- GLC [1]: 188 mg/dL
- IP [1]: 6 mg/dL
- K [1]: 4.2 meq/L
- LDH [1]: 107.2 IU/L
- Na [1]: 140.6 meq/L
- PL [1]: 142 mg/dL
- RALB [1]: 3.9 g/dL
- TBIL [1]: 0.3 mg/dL
- TC [1]: 75.4 mg/dL
- TG [1]: 52.4 mg/dL
- TP [1]: 5.8 g/dL
- gamma-GTP [1]: 1 IU/L
- TERMINAL_BW [2]: 242.5 g
- TERMINAL_BW [3]: 289.9 g
- TERMINAL_BW [4]: 346.6 g
- APTT [2]: 17.1 s
- Bas [2]: 0%
- Eos [2]: 1%
- Fbg [2]: 207.4 mg/dL
- Hb [2]: 14.3 g/dL
- Lym [2]: 77.8%
- MCH [2]: 21.1 pg
- MCHC [2]: 33.5%
- MCV [2]: 63 fL
- Mono [2]: 8.4%
- RBC [2]: 679 x10_4/ul
- Ret [2]: 5.6%
- WBC [2]: 121.9 x10_2/uL
- APTT [3]: 16.7 s
- Bas [3]: 0%
- Eos [3]: 0.6%
- Fbg [3]: 222.4 mg/dL
- Hb [3]: 15.3 g/dL
- Lym [3]: 83.6%
- MCH [3]: 21 pg
- MCHC [3]: 34%
- MCV [3]: 61.8 fL
- Mono [3]: 5.8%
- Plat [3]: 114.6 x10_4/uL
- RBC [3]: 727.2 x10_4/ul
- Ret [3]: 4.7%
- WBC [3]: 127.2 x10_2/uL
- APTT [4]: 16.8 s
- Bas [4]: 0%
- Eos [4]: 1.2%
- Fbg [4]: 231.8 mg/dL
- Hb [4]: 15.7 g/dL
- Ht [4]: 46.3%
- Lym [4]: 79.4%
- MCH [4]: 19.5 pg
- MCHC [4]: 33.9%
- MCV [4]: 57.5 fL
- Mono [4]: 5.4%
- Plat [4]: 118.7 x10_4/uL
- RBC [4]: 806.6 x10_4/ul
- Ret [4]: 4.4%
- KIDNEY_L [2]: 1.1 g
- KIDNEY_R [2]: 1.1 g
- KIDNEY_TOTAL [2]: 2.1 g
- KIDNEY_L [3]: 1.2 g
- KIDNEY_R [3]: 1.2 g
- KIDNEY_TOTAL [3]: 2.4 g
- KIDNEY_L [4]: 1.4 g
- KIDNEY_R [4]: 1.4 g
- KIDNEY_TOTAL [4]: 2.8 g
- ALP [2]: 857.6 IU/L
- ALT [2]: 34 IU/L
- AST [2]: 61.2 IU/L
- BUN [2]: 18.2 mg/dL
- CRE [2]: 0.5 mg/dL
- Ca [2]: 10.8 mg/dL
- Cl [2]: 108.6 meq/L
- DBIL [2]: 0.014 mg/dL
- GLC [2]: 185.6 mg/dL
- IP [2]: 6.9 mg/dL
- K [2]: 4.8 meq/L
- LDH [2]: 107.4 IU/L
- Na [2]: 139.6 meq/L
- PL [2]: 139.4 mg/dL
- RALB [2]: 3.8 g/dL
- TBIL [2]: 0.4 mg/dL
- TC [2]: 65.6 mg/dL
- TG [2]: 74.4 mg/dL
- TP [2]: 5.7 g/dL
- gamma-GTP [2]: 1.4 IU/L
- ALP [3]: 636.8 IU/L
- ALT [3]: 30.6 IU/L
- AST [3]: 57.4 IU/L
- BUN [3]: 19.6 mg/dL
- CRE [3]: 0.6 mg/dL
- Ca [3]: 10.8 mg/dL
- Cl [3]: 105.4 meq/L
- DBIL [3]: 0.016 mg/dL
- GLC [3]: 186.8 mg/dL
- IP [3]: 6.5 mg/dL
- K [3]: 3.9 meq/L
- LDH [3]: 101.8 IU/L
- Na [3]: 141 meq/L
- PL [3]: 160.6 mg/dL
- RALB [3]: 3.8 g/dL
- TBIL [3]: 0.4 mg/dL
- TC [3]: 66.4 mg/dL
- TG [3]: 130.4 mg/dL
- TP [3]: 5.9 g/dL
- gamma-GTP [3]: 0.6 IU/L
- ALP [4]: 509.8 IU/L
- ALT [4]: 31.8 IU/L
- AST [4]: 53 IU/L
- BUN [4]: 18.8 mg/dL
- CRE [4]: 0.5 mg/dL
- Ca [4]: 10.7 mg/dL
- Cl [4]: 106.4 meq/L
- DBIL [4]: 0.05 mg/dL
- GLC [4]: 179.8 mg/dL
- IP [4]: 6.2 mg/dL
- K [4]: 4.2 meq/L
- LDH [4]: 122.4 IU/L
- Na [4]: 140 meq/L
- PL [4]: 169.6 mg/dL
- RALB [4]: 4 g/dL
- TBIL [4]: 0.2 mg/dL
- TC [4]: 72.4 mg/dL
- TG [4]: 139.8 mg/dL
- TP [4]: 6.2 g/dL
- gamma-GTP [4]: 1.2 IU/L
- TERMINAL_BW [5]: 193.8 g
- APTT [5]: 18.5 s
- Bas [5]: 0%
- Eos [5]: 1%
- Fbg [5]: 226.8 mg/dL
- Hb [5]: 14.7 g/dL
- Lym [5]: 85%
- MCH [5]: 21.1 pg
- MCHC [5]: 33.3%
- MCV [5]: 63.2 fL
- Mono [5]: 6.6%
- Plat [5]: 124.6 x10_4/uL
- RBC [5]: 696 x10_4/ul
- Ret [5]: 2.8%
- WBC [5]: 69 x10_2/uL
- KIDNEY_L [5]: 1 g
- KIDNEY_R [5]: 1 g
- KIDNEY_TOTAL [5]: 2 g
- ALP [5]: 630.6 IU/L
- ALT [5]: 29.6 IU/L
- AST [5]: 52.4 IU/L
- BUN [5]: 17.2 mg/dL
- CRE [5]: 0.5 mg/dL
- Ca [5]: 10.4 mg/dL
- Cl [5]: 103.8 meq/L
- DBIL [5]: 0.018 mg/dL
- GLC [5]: 174 mg/dL
- IP [5]: 8.2 mg/dL
- K [5]: 4.4 meq/L
- LDH [5]: 99.6 IU/L
- Na [5]: 139.2 meq/L
- PL [5]: 121.2 mg/dL
- RALB [5]: 3.7 g/dL
- TBIL [5]: 0.4 mg/dL
- TC [5]: 62.8 mg/dL
- TG [5]: 24 mg/dL
- TP [5]: 5.5 g/dL
- gamma-GTP [5]: 1 IU/L
- TERMINAL_BW [6]: 231.2 g
- TERMINAL_BW [7]: 269 g
- TERMINAL_BW [8]: 326.2 g
- APTT [6]: 18.1 s
- Bas [6]: 0%
- Eos [6]: 0.8%
- Fbg [6]: 233 mg/dL
- Hb [6]: 14.4 g/dL
- Lym [6]: 81.4%
- MCH [6]: 21.2 pg
- MCHC [6]: 33.5%
- MCV [6]: 63.3 fL
- Mono [6]: 6%
- Plat [6]: 108.9 x10_4/uL
- RBC [6]: 680.2 x10_4/ul
- Ret [6]: 5.8%
- WBC [6]: 128.7 x10_2/uL
- APTT [7]: 19.3 s
- Bas [7]: 0%
- Eos [7]: 0.6%
- Fbg [7]: 233.6 mg/dL
- Hb [7]: 15 g/dL
- Lym [7]: 82.2%
- MCH [7]: 20.1 pg
- MCHC [7]: 33.6%
- MCV [7]: 59.7 fL
- Mono [7]: 6.4%
- Plat [7]: 119.9 x10_4/uL
- RBC [7]: 750.6 x10_4/ul
- Ret [7]: 5.6%
- WBC [7]: 115.6 x10_2/uL
- APTT [8]: 18.4 s
- Bas [8]: 0%
- Eos [8]: 1%
- Fbg [8]: 288.6 mg/dL
- Hb [8]: 15.3 g/dL
- Ht [8]: 45%
- Lym [8]: 80.4%
- MCH [8]: 19.3 pg
- MCHC [8]: 33.9%
- MCV [8]: 56.9 fL
- Mono [8]: 6.4%
- Plat [8]: 134.2 x10_4/uL
- RBC [8]: 791.2 x10_4/ul
- Ret [8]: 5.2%
- WBC [8]: 109.3 x10_2/uL
- KIDNEY_L [6]: 1.1 g
- KIDNEY_R [6]: 1.1 g
- KIDNEY_TOTAL [6]: 2.2 g
- KIDNEY_L [7]: 1.2 g
- KIDNEY_R [7]: 1.2 g
- KIDNEY_TOTAL [7]: 2.4 g
- KIDNEY_L [8]: 1.7 g
- KIDNEY_R [8]: 1.7 g
- KIDNEY_TOTAL [8]: 3.3 g
- ALP [6]: 838.2 IU/L
- ALT [6]: 31.4 IU/L
- AST [6]: 51.6 IU/L
- BUN [6]: 16 mg/dL
- CRE [6]: 0.6 mg/dL
- Ca [6]: 10.8 mg/dL
- Cl [6]: 107.2 meq/L
- DBIL [6]: 0.01 mg/dL
- GLC [6]: 183.8 mg/dL
- IP [6]: 7.4 mg/dL
- K [6]: 4.7 meq/L
- LDH [6]: 102.6 IU/L
- Na [6]: 140.2 meq/L
- PL [6]: 160.2 mg/dL
- RALB [6]: 3.6 g/dL
- TBIL [6]: 0.4 mg/dL
- TC [6]: 75.2 mg/dL
- TG [6]: 98.4 mg/dL
- TP [6]: 5.6 g/dL
- gamma-GTP [6]: 1.4 IU/L
- ALP [7]: 701.4 IU/L
- ALT [7]: 26.4 IU/L
- AST [7]: 55.8 IU/L
- BUN [7]: 17.6 mg/dL
- CRE [7]: 0.5 mg/dL
- Ca [7]: 10.8 mg/dL
- Cl [7]: 104.4 meq/L
- DBIL [7]: 0.042 mg/dL
- GLC [7]: 172 mg/dL
- IP [7]: 7.9 mg/dL
- K [7]: 4.2 meq/L
- LDH [7]: 92 IU/L
- Na [7]: 141.4 meq/L
- PL [7]: 152.6 mg/dL
- RALB [7]: 3.9 g/dL
- TBIL [7]: 0.4 mg/dL
- TC [7]: 64.4 mg/dL
- TG [7]: 88 mg/dL
- TP [7]: 5.8 g/dL
- gamma-GTP [7]: 1.2 IU/L
- ALP [8]: 453.2 IU/L
- ALT [8]: 24.6 IU/L
- AST [8]: 35.8 IU/L
- BUN [8]: 24.8 mg/dL
- CRE [8]: 0.7 mg/dL
- Ca [8]: 10.9 mg/dL
- Cl [8]: 106.6 meq/L
- DBIL [8]: 0.04 mg/dL
- GLC [8]: 175.6 mg/dL
- IP [8]: 7.3 mg/dL
- K [8]: 4.3 meq/L
- LDH [8]: 96.2 IU/L
- Na [8]: 141.2 meq/L
- PL [8]: 174.6 mg/dL
- RALB [8]: 3.9 g/dL
- TBIL [8]: 0.3 mg/dL
- TC [8]: 70.6 mg/dL
- TG [8]: 152.2 mg/dL
- TP [8]: 6.1 g/dL
- gamma-GTP [8]: 2.4 IU/L
